# According to ChEMBL document CHEMBL1127412, “PRO_LIGAND: an approach to de novo molecular design. 2. Design of novel molecules from molecular field analysis (MFA) models and pharmacophores” (J Med Chem, 1994):
# Non-standard residues stand in square brackets, D forms with d. Residues, ends and D or L forms follow the SMILES beside them. Nle = CCCC[C@H](N)C(=O)O
# Biological target: Angiotensin-converting enzyme (Homo sapiens, UniProt P12821)
# Test: Inhibition against ACE.
row,IC50 [µM],Compound
1,16,C[C@H](NC(=O)[C@@H](N)CCCNC(=N)N)C(=O)N1CCC[C@H]1C(=O)O (H-Arg-Ala-Pro-OH)
2,3.7,CC[C@H](C)[C@H](N)C(=O)N[C@@H](Cc1ccc(O)cc1)C(=O)O (H-Ile-Tyr-OH)
3,2.3,CC(C)C[C@H](N)C(=O)N[C@@H](C)C(=O)N1CCC[C@H]1C(=O)O (H-Leu-Ala-Pro-OH)
4,4.2,C[C@H](NC(=O)[C@@H](N)Cc1ccccc1)C(=O)N1CCC[C@H]1C(=O)O (H-Phe-Ala-Pro-OH)
5,78,N[C@@H](Cc1ccccc1)C(=O)N1CCC[C@H]1C(=O)N1CCC[C@H]1C(=O)O (H-Phe-Pro-Pro-OH)
6,0.7,CCCC[C@H](N)C(=O)N[C@@H](C)C(=O)N1CCC[C@H]1C(=O)O (H-[Nle]-Ala-Pro-OH)
